ChEMBL document CHEMBL1130264 (J Med Chem, 1997)

What was measured:
[1] = target: Neuronal acetylcholine receptor; test: Compound was evaluated for functional potency and efficacy at rat Nicotinic acetylcholine receptor in PC12 cells (ganglionic); format: cell-based; settings: pc-12
[2] = target: T1, Neuronal acetylcholine receptor; alpha4/beta2 (Rattus norvegicus, UniProt P09483+P12390); test: Functional potency for Nicotinic acetylcholine receptor alpha4-beta2 (rat brain)
[3] = target: T2, Neuronal acetylcholine receptor subunit alpha-7 (Rattus norvegicus, UniProt Q05941); test: Functional potency for Nicotinic acetylcholine receptor alpha-7 (rat brain)
T2 sequence (Q05941 whole entry): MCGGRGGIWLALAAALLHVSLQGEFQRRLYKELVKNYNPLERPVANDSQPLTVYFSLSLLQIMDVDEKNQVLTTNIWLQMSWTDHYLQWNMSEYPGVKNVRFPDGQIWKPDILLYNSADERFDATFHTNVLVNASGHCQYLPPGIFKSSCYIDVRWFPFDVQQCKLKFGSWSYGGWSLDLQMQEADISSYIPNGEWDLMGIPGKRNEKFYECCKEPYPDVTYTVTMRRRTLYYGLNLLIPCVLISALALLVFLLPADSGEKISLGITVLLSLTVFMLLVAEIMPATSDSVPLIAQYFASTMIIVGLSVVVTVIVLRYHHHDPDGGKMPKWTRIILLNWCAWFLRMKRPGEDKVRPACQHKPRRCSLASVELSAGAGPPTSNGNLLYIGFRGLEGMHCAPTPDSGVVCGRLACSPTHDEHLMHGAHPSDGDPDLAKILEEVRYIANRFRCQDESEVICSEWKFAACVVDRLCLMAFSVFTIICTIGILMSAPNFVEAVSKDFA

[4] = species: Rattus norvegicus; test: Compound was evaluated for functional potencies and efficacies at rat nAChR subtype DA release; format: organism-based
[5] = target: T1, Neuronal acetylcholine receptor; alpha4/beta2; test: Compound was evaluated for functional potencies and efficacies at rat Nicotinic acetylcholine receptor alpha4-beta2; format: protein-complex assay
[6] = target: T1, Neuronal acetylcholine receptor; alpha4/beta2; test: Binding potency for Nicotinic acetylcholine receptor alpha4-beta2 (rat brain)
[7] = target: T3, Neuronal acetylcholine receptor subunit alpha-7 (Homo sapiens, UniProt P36544); test: Compound was evaluated for functional potencies and efficacies at human Nicotinic acetylcholine receptor alpha7
T3 sequence (P36544 whole entry): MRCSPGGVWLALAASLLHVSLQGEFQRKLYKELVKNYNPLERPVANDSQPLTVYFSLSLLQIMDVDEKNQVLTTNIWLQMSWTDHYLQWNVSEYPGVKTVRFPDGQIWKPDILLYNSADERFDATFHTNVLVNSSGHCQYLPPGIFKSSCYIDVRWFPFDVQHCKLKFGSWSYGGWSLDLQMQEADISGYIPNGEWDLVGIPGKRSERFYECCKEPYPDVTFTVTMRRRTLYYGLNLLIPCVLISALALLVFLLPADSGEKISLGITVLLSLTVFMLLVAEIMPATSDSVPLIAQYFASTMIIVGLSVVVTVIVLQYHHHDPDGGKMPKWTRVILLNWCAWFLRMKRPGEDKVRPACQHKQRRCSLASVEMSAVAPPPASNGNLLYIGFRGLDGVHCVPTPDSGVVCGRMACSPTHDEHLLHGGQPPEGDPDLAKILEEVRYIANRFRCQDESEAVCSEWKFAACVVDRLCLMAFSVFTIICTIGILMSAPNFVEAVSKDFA

[8] = target: T2, Neuronal acetylcholine receptor subunit alpha-7; test: Binding potency for Nicotinic acetylcholine receptor alpha-7 (rat brain)
[9] = target: Neuronal acetylcholine receptor; alpha3/beta4 (Homo sapiens, UniProt P30926+P32297); test: Compound was evaluated for functional potencies and efficacies at human Nicotinic acetylcholine receptor subtype IMR-32 (ganglionic); format: protein-complex assay
Chain of Neuronal acetylcholine receptor; alpha3/beta4 (P30926 whole entry): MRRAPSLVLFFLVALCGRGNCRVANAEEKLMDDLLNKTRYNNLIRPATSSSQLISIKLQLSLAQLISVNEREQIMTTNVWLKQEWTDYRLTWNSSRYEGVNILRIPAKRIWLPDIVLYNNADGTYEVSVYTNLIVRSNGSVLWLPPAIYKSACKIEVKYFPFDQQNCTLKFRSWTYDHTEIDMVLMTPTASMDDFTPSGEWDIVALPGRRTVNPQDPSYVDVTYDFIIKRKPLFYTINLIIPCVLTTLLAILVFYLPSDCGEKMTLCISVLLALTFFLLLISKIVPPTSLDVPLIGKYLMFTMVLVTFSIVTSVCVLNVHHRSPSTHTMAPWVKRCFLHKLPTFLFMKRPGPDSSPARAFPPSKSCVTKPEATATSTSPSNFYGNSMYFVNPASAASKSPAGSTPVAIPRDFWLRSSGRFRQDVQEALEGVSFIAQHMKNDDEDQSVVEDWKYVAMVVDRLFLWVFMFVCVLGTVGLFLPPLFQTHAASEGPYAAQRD
Chain of Neuronal acetylcholine receptor; alpha3/beta4 (P32297 whole entry): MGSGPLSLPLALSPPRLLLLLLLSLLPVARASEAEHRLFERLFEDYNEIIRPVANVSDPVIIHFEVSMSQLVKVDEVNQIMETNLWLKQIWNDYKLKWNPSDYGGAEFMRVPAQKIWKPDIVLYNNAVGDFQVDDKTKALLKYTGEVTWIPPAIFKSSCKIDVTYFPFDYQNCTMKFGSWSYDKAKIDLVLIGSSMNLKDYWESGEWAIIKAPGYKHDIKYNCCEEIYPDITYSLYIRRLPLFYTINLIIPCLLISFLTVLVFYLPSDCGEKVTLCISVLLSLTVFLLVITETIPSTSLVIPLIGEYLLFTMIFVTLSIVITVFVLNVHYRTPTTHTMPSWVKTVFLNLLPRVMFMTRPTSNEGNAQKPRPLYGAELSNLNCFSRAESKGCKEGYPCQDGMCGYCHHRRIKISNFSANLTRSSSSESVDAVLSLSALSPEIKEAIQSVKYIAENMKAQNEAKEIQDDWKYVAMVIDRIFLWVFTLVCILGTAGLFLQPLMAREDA

[10] = species: Rattus norvegicus; test: compound was evaluated for functional potencies and efficacies at rat nAChR subtype DA release; format: organism-based
[11] = target: T4, Neuronal acetylcholine receptor; alpha4/beta2 (Homo sapiens, UniProt P17787+P43681); test: Compound was evaluated for functional potencies and efficacies at human Nicotinic acetylcholine receptor alpha4-beta2; format: protein-complex assay
T4 sequence (P17787 whole entry): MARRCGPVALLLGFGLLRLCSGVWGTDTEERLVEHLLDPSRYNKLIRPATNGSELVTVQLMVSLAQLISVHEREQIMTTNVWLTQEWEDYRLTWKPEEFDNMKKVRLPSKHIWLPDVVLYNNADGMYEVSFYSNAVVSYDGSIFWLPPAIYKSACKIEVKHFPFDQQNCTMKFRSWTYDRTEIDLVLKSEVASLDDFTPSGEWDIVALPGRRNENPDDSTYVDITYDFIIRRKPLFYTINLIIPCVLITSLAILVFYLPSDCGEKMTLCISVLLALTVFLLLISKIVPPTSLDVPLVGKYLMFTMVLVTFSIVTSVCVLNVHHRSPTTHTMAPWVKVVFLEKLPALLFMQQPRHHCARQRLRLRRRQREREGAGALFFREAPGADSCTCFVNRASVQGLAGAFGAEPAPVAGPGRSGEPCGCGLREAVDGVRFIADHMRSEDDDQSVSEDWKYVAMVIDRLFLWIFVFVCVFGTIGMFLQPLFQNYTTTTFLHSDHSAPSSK
T4 sequence (P43681 whole entry): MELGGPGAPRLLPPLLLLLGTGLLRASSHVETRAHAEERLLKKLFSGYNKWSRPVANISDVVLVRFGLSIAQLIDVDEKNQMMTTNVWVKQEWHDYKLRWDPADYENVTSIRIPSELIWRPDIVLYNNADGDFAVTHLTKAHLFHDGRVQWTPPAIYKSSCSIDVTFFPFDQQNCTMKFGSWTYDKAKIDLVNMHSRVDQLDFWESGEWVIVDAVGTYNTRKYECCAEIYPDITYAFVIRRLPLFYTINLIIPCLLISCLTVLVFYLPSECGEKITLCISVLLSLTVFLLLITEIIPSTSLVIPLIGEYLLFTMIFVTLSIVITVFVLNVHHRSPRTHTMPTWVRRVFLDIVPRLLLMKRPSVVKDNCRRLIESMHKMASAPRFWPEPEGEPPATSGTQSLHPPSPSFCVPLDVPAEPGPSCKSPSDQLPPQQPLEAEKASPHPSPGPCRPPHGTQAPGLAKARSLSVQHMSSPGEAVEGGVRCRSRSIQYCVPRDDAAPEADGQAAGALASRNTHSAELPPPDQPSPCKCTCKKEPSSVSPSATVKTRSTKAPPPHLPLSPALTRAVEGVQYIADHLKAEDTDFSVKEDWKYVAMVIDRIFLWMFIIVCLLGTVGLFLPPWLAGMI

[12] = target: T5, Neuronal acetylcholine receptor (Rattus norvegicus) (UniProt P04757+P09483+P12389+P12390+P12392+P43144+Q9JLB5+P12391+P43143+P20420+Q05941); test: Compound was evaluated for functional potency and efficacy at rat Nicotinic acetylcholine receptor subtype DA release at 1 uM
[13] = target: T5, Neuronal acetylcholine receptor (Rattus norvegicus); test: compound was evaluated for functional potency and efficacy at rat Nicotinic acetylcholine receptor subtype DA release at 10 uM
[14] = target: T6, Acetylcholine receptor (Torpedo californica, UniProt P02710+P02712+P02714+P02718); test: Binding potency for nAChR subtype Alpha-1-beta-1-delta gamma(torpedo); format: protein-complex assay
[15] = target: T6, Acetylcholine receptor; test: Functional potency for nAChR subtype Alpha1-beta1 delta gamma (torpedo); format: protein-complex assay
[16] = target: Neuronal acetylcholine receptor; test: Compound was evaluated for functional potencies and efficacies at rat Nicotinic acetylcholine receptor subtype PC12 (ganglionic); format: cell-based; settings: pc-12
[17] = target: T1, Neuronal acetylcholine receptor; alpha4/beta2; test: Compound was evaluated for functional potencies and efficacies at rat Recombinant Nicotinic acetylcholine receptor alpha4-beta2; low efficacy; format: protein-complex assay
[18] = target: T3, Neuronal acetylcholine receptor subunit alpha-7; test: Compound was evaluated for functional potencies and efficacies at human Nicotinic acetylcholine receptor alpha7; low efficacy
[19] = target: T4, Neuronal acetylcholine receptor; alpha4/beta2; test: Compound was evaluated for functional potencies and efficacies at human Nicotinic acetylcholine receptor alpha4-beta2; low efficacy; format: protein-complex assay
[20] = target: T3, Neuronal acetylcholine receptor subunit alpha-7; test: Ability to block activation of acetylcholine-stimulated currents in human alpha-7 homomers expressed in oocytes; format: functional, cell-based, Oocyte
[21] = target: Muscle-type nicotinic acetylcholine receptor; test: Compound was evaluated for functional potencies and efficacies at human muscle type Nicotinic acetylcholine receptor in TE671 cells; format: cell-based; settings: te-671
[22] = target: T6, Acetylcholine receptor
[23] = target: T6, Acetylcholine receptor; remark: listed apart in the source
[24] = target: T3, Neuronal acetylcholine receptor subunit alpha-7; test: (§1) Affinity for Nicotinic acetylcholine receptor alpha7
[25] = target: T2, Neuronal acetylcholine receptor subunit alpha-7; test: as §1
[26] = system: TE-671; test: Stimulation of ion flux in TE671 cells; format: functional, cell-based; settings: Homo sapiens

T1 sequence (P09483 whole entry): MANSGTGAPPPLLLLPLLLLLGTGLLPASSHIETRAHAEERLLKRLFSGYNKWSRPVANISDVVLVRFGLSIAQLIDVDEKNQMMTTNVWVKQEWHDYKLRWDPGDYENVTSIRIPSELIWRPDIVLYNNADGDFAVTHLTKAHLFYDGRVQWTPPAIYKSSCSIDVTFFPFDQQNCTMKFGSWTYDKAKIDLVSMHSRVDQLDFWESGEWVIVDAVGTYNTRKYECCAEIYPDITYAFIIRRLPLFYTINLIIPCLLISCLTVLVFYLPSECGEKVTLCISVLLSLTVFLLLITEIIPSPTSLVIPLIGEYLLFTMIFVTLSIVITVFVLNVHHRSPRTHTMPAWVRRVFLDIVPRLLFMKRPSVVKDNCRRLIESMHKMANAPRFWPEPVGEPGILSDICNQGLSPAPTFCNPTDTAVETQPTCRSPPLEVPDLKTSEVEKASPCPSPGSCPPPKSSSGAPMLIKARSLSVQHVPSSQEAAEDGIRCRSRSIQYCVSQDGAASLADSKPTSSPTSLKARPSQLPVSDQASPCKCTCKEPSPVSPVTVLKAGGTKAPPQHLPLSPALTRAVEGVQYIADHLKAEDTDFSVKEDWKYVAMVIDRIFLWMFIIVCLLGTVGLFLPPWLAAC
T1 sequence (P12390 whole entry): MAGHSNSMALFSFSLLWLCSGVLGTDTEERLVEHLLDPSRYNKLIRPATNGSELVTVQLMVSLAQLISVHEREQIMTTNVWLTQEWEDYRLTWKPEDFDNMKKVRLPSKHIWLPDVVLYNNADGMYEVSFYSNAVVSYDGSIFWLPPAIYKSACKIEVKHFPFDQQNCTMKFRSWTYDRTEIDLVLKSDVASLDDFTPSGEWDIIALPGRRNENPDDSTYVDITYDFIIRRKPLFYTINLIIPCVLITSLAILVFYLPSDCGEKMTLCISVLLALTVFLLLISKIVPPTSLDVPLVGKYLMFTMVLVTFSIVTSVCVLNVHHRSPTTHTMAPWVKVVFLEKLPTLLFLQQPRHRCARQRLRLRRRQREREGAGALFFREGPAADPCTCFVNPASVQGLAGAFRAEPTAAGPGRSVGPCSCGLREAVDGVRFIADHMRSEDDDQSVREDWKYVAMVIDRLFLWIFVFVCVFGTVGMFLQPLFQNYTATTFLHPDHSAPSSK

Compound: CC(=O)C1=CC[N+](C)(C)CC1
- EC50 [1]: 100 µM

Compound: CO[C@@H]1CC=C2CCN3CCC4=C(CC(=O)OC4)[C@@]23C1
- EC50 [2]: 0.7 µM
- EC50 [3]: 8.9 µM
- EC50 [4]: 0.03 µM
- EC50 [5]: 0.37 µM
- Ki [6]: 0.04 nM
- EC50 [7]: 19.6 µM
- Ki [8]: 0.148 µM

Compound: c1cncc(OC[C@@H]2CCN2)c1
- EC50 ([9]; read-out: EC50): 0.7 µM
- EC50 [7]: 8.9 µM
- EC50 [10]: 0.003 µM
- EC50 [11]: 0.7 µM

Compound: CN1CCC[C@H]1COc1cccnc1
- Potency [12]: 55%
- Potency [13]: 90%

Compound: Clc1ccc(C2CC3CCC2N3)cn1 (racemic) [EPIBATIDINE]
- EC50 [4]: 0.037 µM
- EC50 [7]: 3.5 µM

Compound: Cc1cc([C@@H]2CCCN2C)on1 [ABT-418]
- EC50 [2]: 10 µM
- Ki [14]: > 10 µM
- EC50 [3]: 264 µM
- EC50 [4]: 0.38 µM
- EC50 [5]: 6 µM
- Ki [6]: 7.89 nM
- EC50 ([9]; read-out: EC50): 64 µM
- EC50 [7]: 264 µM
- EC50 [15]: 411 µM
- Ki [8]: > 10 µM

Compound: O=c1cccc2n1C[C@@H]1CNC[C@H]2C1 [CYTISINICLINE]
- EC50 [4]: 0.06 µM
- EC50 [16]: 10 µM
- EC50 ([9]; read-out: EC50): 26 µM
- EC50 [7]: 71 µM
- EC50 [11]: 38 µM

Compound: C[N+]1(C)CCN(c2ccccc2)CC1 [DIMETHYLPHENYLPIPERAZINIUM]
- EC50 [4]: 4.3 µM
- EC50 [7]: 95 µM
- EC50 [11]: 2.5 µM

Compound: COc1ccc(/C=C2\CCCN=C2c2cccnc2)c(OC)c1 [GTS-21]
- EC50 [4]: 10 µM
- EC50 [17]: Low efficacy
- EC50 [9]: Low efficacy
- EC50 [18]: Low efficacy
- EC50 [19]: Low efficacy

Compound: CNC1(C)C2CCC(C2)C1(C)C (centres undefined) [MECAMYLAMINE]
- IC50 [20]: 1.8 µM
- EC50 [21]: 30 µM

Compound: CN1CCC[C@H]1c1cccnc1 [NICOTINE]
- EC50 [4]: 0.04 µM
- Ki [22]: > 10 µM
- EC50 [23]: 60 µM

Compound: Cc1ncccc1OC[C@@H]1CCCN1 [POZANICLINE]
- Ki [24]: > 10 µM
- EC50 [4]: 1.1 µM
- EC50 [9]: Low efficacy
- EC50 [18]: Low efficacy
- EC50 [19]: Low efficacy

Compound: CNCC/C=C/c1cccnc1 [RIVANICLINE]
- Ki [25]: 36 µM
- EC50 [4]: 0.94 µM
- EC50 ([9]; read-out: EC50): 46 µM
- EC50 [11]: 4.3 µM

Compound: C[N+](C)(C)CCOC(=O)CCC(=O)OCC[N+](C)(C)C [SUXAMETHONIUM]
- EC50 [26]: 30 µM
